For the experiment, the target named is T1, human 5-HT2C receptor (Homo sapiens, UniProt P28335).
T1 construct: host or cells: CHO cells, stably expressing
T1 sequence (P28335 33-458): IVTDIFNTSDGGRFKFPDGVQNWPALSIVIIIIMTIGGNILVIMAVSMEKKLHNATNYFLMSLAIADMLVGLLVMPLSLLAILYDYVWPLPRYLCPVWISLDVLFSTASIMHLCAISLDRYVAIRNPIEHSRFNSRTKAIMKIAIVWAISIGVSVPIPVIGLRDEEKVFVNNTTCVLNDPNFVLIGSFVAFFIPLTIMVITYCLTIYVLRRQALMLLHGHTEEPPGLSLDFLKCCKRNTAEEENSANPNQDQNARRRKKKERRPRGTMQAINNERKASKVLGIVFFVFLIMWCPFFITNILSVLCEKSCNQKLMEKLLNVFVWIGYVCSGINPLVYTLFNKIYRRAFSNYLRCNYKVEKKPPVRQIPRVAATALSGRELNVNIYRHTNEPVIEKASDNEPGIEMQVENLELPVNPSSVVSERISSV
The experiment in a line: Functional calcium mobilization (FLIPR) assay, 5-HT2C. Format: cell-based. Conditions: CHO cells stably expressing human 5-HT2C receptor; agonist-stimulated Ca2+ flux. Here is the method: (a) Cell Culture for the Human 5-HT2A, Human 5-HT2B, and Human 5-HT2C Receptors:
CHO cells stably expressing the human 5-HT2A, human 5-HT2B, and human 5-HT2C receptors were purchased from PerkinElmer (Waltham, Mass.). Cells were grown in advance DMEM/F12, 1% dialyzed fetal bovine serum, 2 mM L-glutamine, 100 units/mL penicillin, 1 mg/mL streptomycin, and 0.4 mg/ml Geneticin at 37° C. in 5% CO2 atmosphere.
(b) Calcium Mobilization Assays:
Cells were seeded in black clear-bottom 384-well plates at a density of 10,000 cells/well and incubated overnight at 37° C. in 5% CO2/95% atmosphere. After removing medium, cells were loaded with modified HBSS buffer (137.9 mM NaCl, 5.3 mM KCl, 5.5 mM glucose, 20 mM Hepes, 0.49 mM MgCl2, 1.26 mM CaCl2, 0.41 mM MgSO4, 0.33 mM Na2HPO4, and 0.44 mM KH2PO4) containing the FLIPR Calcium 4 dye (Molecular Devices, CA) and probenecid ([…]) and incubated at 37° C. for 60 min, according to the manufacturer's instructions. Compounds were diluted in HBSS buffer containing 6% DMSO as six folds. Final DMSO concentration in the assay was 1%. The dose-response of agonist-stimulated Ca^2+ flux was measured on a Fluorometric Imaging Plate Reader (FLIPR Tetra) (Molecular Devices, CA).
Data were analyzed by nonlinear least squares curve fitting using GraphPad Prism 5.0 software (GraphPad Software, CA). Agonist stimulation in FLIPR assay was fitted to sigmoidal dose response curves using the equation Y=Bottom+(Top-Bottom)/(1+10^((Log EC50−X)*Hill Slope)), where X is the logarithm of concentration of compounds. Y is the fluorescent response, EC50 is the concentration of compound producing 50% of maximum response. Maximum responses (Emax) of compounds were calculated based on % of stimulation relative to the response of α-methyl-5HT (100%). EC50's are representative of two or three separate experiments performed in triplicates.
On the technique in general: Calcium assays in cells follow changes in intracellular calcium, usually with a dye or a luminescent sensor.

For orientation: EC50 means the concentration needed to bring the measured effect to its halfway point. With `Clc1ccc(C2CC2)c2nc3c(cc12)CCNCC3`, the EC50 was < 1 nM. The figure for `Fc1cc(C2CC2)c2nc3c(cc2c1F)CCNCC3` is < 5 nM; for `Cc1c2c(nc3c(C4CC4)ccc(Cl)c13)CCNCC2` it is < 15 nM; for `Fc1cc(C2CC2)c2nc3c(cc2c1Cl)CCNCC3` it is < 5 nM. The result for `Clc1ccc(OC2CCCCC2)c2cc3c(nc12)CCNCC3` reads < 50 nM. As for `Cc1c2c(nc3c(Cl)ccc(OC4CCCCC4)c13)CCNCC2`, the concentration giving a half-maximal response (EC50) was < 5 nM. The figure for `Fc1cc(F)c2cc3c(nc2c1C1CC1)CCNCC3` is < 5 nM; for `Cc1c2c(nc3c(C4CC4)c(F)cc(F)c13)CCNCC2` it is < 5 nM. Consider `Cc1c2c(nc3c(OC4CCCCCC4)ccc(F)c13)CCNCC2`, for which the EC50 is < 10 nM. The result for `Fc1cccc(Oc2ccc(Cl)c3nc4c(cc23)CCNCC4)c1` reads < 20 nM. Consider `Cc1c2c(nc3c(OC4CCCCC4)ccc(F)c13)CCNCC2`, for which the EC50 was < 10 nM.
